PubChem BioAssay (NCI)
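Briefly, cells in 96-well plates were exposed to five compound concentrations for 48 h, and endpoints were estimated by linear interpolation. TGI: concentration producing complete growth inhibition.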

Tests used:
Assay in all cases: inhibition of tumour cell growth, NCI panel, 48 h
SF-295 CNS = test system: SF-295 CNS
T-47D breast = test system: T-47D breast
SNB-75 CNS = test system: SNB-75 CNS
SNB-19 CNS = test system: SNB-19 CNS
OVCAR-8 ovarian = test system: OVCAR-8 ovarian
ACHN renal = test system: ACHN renal
SR leukemia = test system: SR leukemia
SF-539 CNS = test system: SF-539 CNS
UO-31 renal = test system: UO-31 renal
MDA-N = test system: MDA-N
NCI-H23 lung = test system: NCI-H23 lung
BT-549 breast = test system: BT-549 breast
M14 melanoma = test system: M14 melanoma
NCI/ADR-RES ovarian = test system: NCI/ADR-RES ovarian
SW-620 colon = test system: SW-620 colon
NCI-H226 lung = test system: NCI-H226 lung
A498 renal = test system: A498 renal
HOP-92 NSCLC = test system: HOP-92 NSCLC

Row | Structure (SMILES) | TGI (SF-295 CNS) | TGI (T-47D breast) | TGI (SNB-75 CNS) | TGI (SNB-19 CNS) | TGI (OVCAR-8 ovarian) | TGI (ACHN renal) | TGI (SR leukemia) | TGI (SF-539 CNS) | TGI (UO-31 renal) | TGI (MDA-N) | TGI (NCI-H23 lung) | TGI (BT-549 breast) | TGI (M14 melanoma) | TGI (NCI/ADR-RES ovarian) | TGI (SW-620 colon) | TGI (NCI-H226 lung) | TGI (A498 renal) | TGI (HOP-92 NSCLC)
1 | COc1ccc(N(C)S(=O)(=O)c2ccccc2)cc1 | > 100 µM | > 100 µM | > 100 µM | > 100 µM | > 100 µM | > 100 µM | > 100 µM | > 100 µM | > 100 µM | > 100 µM | > 100 µM | > 100 µM | > 100 µM | > 100 µM | > 100 µM | > 100 µM |  | 
2 | CCOC(=O)c1ccc(Nc2nc3cc(C(F)(F)F)ccc3nc2-c2ccccc2)cc1 | 60.6 µM | 91.6 µM | 39.4 µM | > 100 µM | > 100 µM | 47.5 µM | > 100 µM | > 100 µM | > 100 µM | > 100 µM | > 100 µM | > 100 µM |  | > 100 µM | > 100 µM | > 100 µM |  | 
3 | CC1Cc2c(Br)nc(N)nc2NC1=O (centres undefined) | > 100 µM | > 100 µM | > 100 µM | > 100 µM | > 100 µM | > 100 µM | > 100 µM | > 100 µM | > 100 µM | > 100 µM | > 100 µM | > 100 µM | > 100 µM | > 100 µM | > 100 µM | > 100 µM | > 100 µM | 
4 | COc1ccccc1C1SCC(=O)N1c1ccc(-n2c(-c3ccccc3)nc3ccccc3c2=O)cc1 (centres undefined) | > 100 µM | > 100 µM | 43.1 µM | > 100 µM | > 100 µM | > 100 µM | > 100 µM | > 100 µM | > 100 µM | > 100 µM | > 100 µM | > 100 µM |  | > 100 µM | > 100 µM | > 100 µM | > 100 µM | > 100 µM
5 | O=C1/C(=C\c2ccc(Cl)cc2Cl)Sc2scc(-c3cccc([N+](=O)[O-])c3)[n+]21 | > 68.9 µM | 57.8 µM | > 69.8 µM | 32.5 µM | 29.1 µM | 12.6 µM | > 100 µM |  | 13.8 µM | 16.7 µM | 31.5 µM | 18.1 µM | 19.9 µM | 41.9 µM | > 32.2 µM | 38.2 µM | > 100 µM | 18.3 µM
6 | N#Cc1c(-c2ccc(Cl)cc2)cc(-c2ccc(Nc3ccnc4cc(C(F)(F)F)ccc34)cc2)[nH]c1=O | > 87.1 µM | 14.8 µM | > 50 µM | 34.3 µM | > 100 µM | > 100 µM | 8.93 µM | 18.5 µM |  | 11.9 µM | > 100 µM | 35.5 µM | 13.9 µM | > 100 µM | > 84.2 µM | > 100 µM | > 89.6 µM | 32.7 µM
7 | OCC(CN1CCCCC1)(CN1CCCCC1)CN1CCCCC1 |  | > 100 µM |  | > 100 µM | > 100 µM | > 100 µM | > 100 µM | > 100 µM | > 100 µM | > 100 µM | > 100 µM | > 100 µM | > 100 µM | > 100 µM | > 100 µM | > 100 µM | > 100 µM | > 100 µM
8 | COc1cc(N=CN(C)C)c2ncccc2c1 | > 100 µM | > 100 µM | > 100 µM | > 100 µM | > 100 µM | > 100 µM | 19.3 µM | > 100 µM | > 100 µM | 56 µM | > 100 µM | > 100 µM | > 100 µM | > 100 µM |  | > 100 µM | > 100 µM | > 100 µM
9 | CC1=NN(C(=O)CC(=O)Nc2ccccc2C)C(=O)C1N=Nc1ccc(C(=O)O)cc1 (centres undefined) | > 100 µM | > 100 µM | > 100 µM | > 100 µM | > 100 µM | > 100 µM | > 100 µM | > 100 µM | > 100 µM | > 100 µM | > 100 µM | > 100 µM | > 100 µM | > 100 µM | > 100 µM |  | > 100 µM | > 100 µM
10 | Cc1ccc(/C(O)=C/c2nc3ccccc3oc2=O)cc1 | > 100 µM | > 100 µM | > 100 µM | > 100 µM | > 100 µM | > 100 µM | > 100 µM | > 100 µM | > 100 µM | 59.3 µM | > 100 µM | > 100 µM | > 100 µM | > 100 µM |  | > 100 µM | > 100 µM | 
11 | O=C(O)CNC(=O)CO/N=C1/C(c2c(O)[nH]c3ccccc23)=Nc2ccccc21 | > 100 µM | > 100 µM | > 100 µM | > 100 µM | > 100 µM | > 100 µM | > 100 µM | > 100 µM | > 100 µM | > 100 µM | > 100 µM | > 100 µM | > 100 µM | > 100 µM | > 100 µM | > 100 µM |  | > 100 µM
12 | O=c1[nH]nc(Cc2ccccc2)n1/N=C/c1c(O)ccc2ccccc12 | 69 µM | 77.1 µM | 79.2 µM | 46.5 µM | 51.9 µM | 84.5 µM | 59.9 µM | 42.9 µM | > 100 µM | > 100 µM | > 100 µM | > 100 µM |  | 64.2 µM | > 100 µM | 73.6 µM | 47.4 µM | 50.3 µM
